Reference: patent publication US20180369268A1, “METHODS FOR IDENTIFYING INHIBITORS OF "STIMULATOR OF INTERFERON GENE"- DEPENDENT INTERFERON PRODUCTION” (ADURO BIOTECH, INC., priority 2015, published 2018)
pIC50: −log10 of the molar value. Like-named read-outs stand apart in the source and are kept apart here.

Biological target: T1, STING in THP1 cells (HAQ allele) (Homo sapiens, UniProt Q86WV6, G230A/H232R/R293Q/R71H)
T1 construct: host or cells: THP-1 dual reporter cells
Assay: THP-1 competition assay with STING agonist 2′3′-RR-(A)(A) (IRF-3 luciferase reporter)
Type: cell-based
Description: The scaffold molecules and STING inhibitory compounds as described herein are assayed for their ability to inhibit the induction of STING dependent IFN-β production by an agonist compound in a competition assay. Relative induction of IRF-3 signaling in THP-1 cells (HAQ allele) was measured after stimulating the cells with a mix of a scaffold molecule (or any putative STING antagonist) titrated against a constant concentration of the STING agonist 2′3′-RR-(A)(A) in PB buffer (50 mM HEPES pH 7.5, 100 mM KCl, 3 mM MgCl2, 0.1 mM DTT, 85 mM sucrose, 0.2% BSA, 1 mM ATP, 0.1 mM GTP).
One day prior to performing the assay, THP-1 dual (Invivogen) reporter cells were plated at 500,000 cells/mL in 200 μL per well in a 96-well plate and differentiated overnight with 3 μg/mL phorbal myristate acetate in RPMI medium 1640 (4.5 g/L D-glucose, 2.383 g/L HEPES, 300 mg/L L-glutamine, 1.5 g/L sodium bicarbonate, 110 mg/L sodium pyruvate, 10% heat-inactivated fetal bovine serum, 1× penicillin/streptomycin, 0.1 mg/mL normocin).
On the day of the assay, the media was removed from the wells and replaced with 150 μL of fresh media. The titrations against 2′ 3′-RR-(A)(A) in a final volume of 100 μL were made as follows: two-fold dilutions (2,000 μM-3.9 μM) of the scaffold molecule into PB buffer containing 100 μM 2′3′-RR-(A)(A) for a final concentration of 50 μM 2′3′-RR-(A)(A). Compounds were tested in biological triplicate.
The cells were then stimulated with 25 μL of each titration for 30 minutes at 37° C. in a CO2 incubator. After stimulating, the cells were washed twice, first with 100 μL and then 150 μL of fresh media. After washing, 150 μL of media was added to each well and the cells were incubated for 17 hours overnight at 37° C. in a CO2 incubator.
To detect IRF-3 signaling, 50 μL of luciferase substrate (Invivogen QUANTI-Luc coelenterazine-based luminescence reagent reconstituted in 25 mL water) was added to 10 μL of supernatant from each well in a 96-well white opaque plate. Luminescence was measured using a SpectraMax M3 plate reader (Molecular Devices) and relative fold-induction was calculated as the values obtained from wells containing both the scaffold molecule and 2′3′-RR-(A)(A) divided by the values obtained from wells containing 2′3′-RR-(A)(A) alone. The average of the relative fold-induction was plotted against the log concentration of the antagonist. Agonist compounds 2′3′-RR-(G)(A) and RR-(A)(A) were run as controls in this assay (see FIGS. 2A and 2B).
The results are provided for control compounds in FIGS. 2A and 2B and scaffold molecules in FIGS. […]: 2′3′-SR-(3′OTBS-A)(2′F-A) (FIG. 3A, Comp. 6a), SR-(2′F-A)(2′OTBS-A) (FIG. 3B, Comp. 18a), RR-(2,6-DAP)(2,6-DAP) (FIG. 3C, Comp. 23), RS-(2,6-DAP)(2,6-DAP) (FIG. 3D, Comp. 23a), (6-O-propargyl-G)(G) (FIG. 3E, Comp. 25), RR-(2′F-ibG)(2′F-ibG) (FIG. 3F, Comp. 32), RR-(2′F-C)(2′F-A) (FIG. 3G, Comp. 37), RS-(2′F-C)(2′F-A) (FIG. 3H, Comp. 37a), 3′2′-RR-(ibG)(BzA) (FIG. 3I, Comp. 42), 3′2′-SS-(G)(A) (FIG. 3J, Comp. 43), dithio-3′2′-(2′OTBS-G)(3′OTBS-A) isomer 1 (FIG. 3K, Comp. 49, isomer 1), dithio-3′2′-(2′OTBS-G)(3′OTBS-A) isomer 2 (FIG. 3L, Comp. 49, isomer 2), Beta-L-SS-(A)(A) (FIG. 3M, Comp. 48), Beta-L-RS-(A)(A) (FIG. 3N, Comp. 48a), and Beta-L-RR-(A)(A) (FIG. 3O, Comp. 48b). Isomer 1 and 2 of Compound 49 are different isomers, and are each one of compound 49a, 49b, 49c or 49d.

[1] = 50 μM 2′3′-RR-(A)(A), scaffold 2,000 μM-3.9 μM, without digitonin, IRF-3 reporter, read-out: IC50 inhibition of 2′3′-RR-(A)(A) agonist activity without digitonin in THP1 cells (HAQ allele)

T1 sequence (Q86WV6 whole entry R71H/G230A/H232R/R293Q): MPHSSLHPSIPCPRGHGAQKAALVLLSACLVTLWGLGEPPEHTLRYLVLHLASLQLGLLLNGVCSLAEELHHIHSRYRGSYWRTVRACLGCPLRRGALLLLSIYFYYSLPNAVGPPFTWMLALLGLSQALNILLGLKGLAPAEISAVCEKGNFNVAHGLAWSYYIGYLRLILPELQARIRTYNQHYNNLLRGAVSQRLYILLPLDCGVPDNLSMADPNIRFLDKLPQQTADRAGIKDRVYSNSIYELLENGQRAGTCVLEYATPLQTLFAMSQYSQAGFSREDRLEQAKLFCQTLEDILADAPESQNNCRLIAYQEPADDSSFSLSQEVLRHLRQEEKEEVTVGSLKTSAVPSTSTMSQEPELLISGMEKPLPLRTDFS

Row | pIC50 [1] | Compound | pIC50
1 |  | CC(C)(C)[Si](C)(C)O[C@H]1[C@H]2O[P@@](=O)(S)OC[C@H]3O[C@@H](n4cnc5c(N)ncnc54)[C@H](F)[C@@H]3O[P@](=O)(S)OC[C@H]1O[C@H]2n1cnc2c(N)ncnc21 [Compound 6a, dithio-[SP, RP]-cyclic-[3′OTBS-A(2′,5′)p-2′F-A(3′,5′)p]] | 2.66
2 | 3.82 | Nc1nc(N)c2ncn([C@@H]3O[C@@H]4CO[P@@](=O)(S)O[C@H]5[C@@H](O)[C@H](n6cnc7c(N)nc(N)nc76)O[C@@H]5CO[P@@](=O)(S)O[C@H]4[C@H]3O)c2n1 [Compound 23, (2R,3R,3aS,5R,7aR,9R,10R,10aS,12R,14aR)-2,9-bis(2,6-diamino-9H-purin-9-yl)-3,10-dihydroxy-5,12-dimercaptooctahydro-2H,7H-difuro[3,2-d:3′,2′-j][1,3,7,9]tetraoxa[2,8]diphosphacyclododecine 5,12-dioxide] | 
3 | 3.82 | Nc1nc(N)c2ncn([C@@H]3O[C@@H]4CO[P@@](=O)(S)O[C@H]5[C@@H](O)[C@H](n6cnc7c(N)nc(N)nc76)O[C@@H]5CO[P@](=O)(S)O[C@H]4[C@H]3O)c2n1 [Compound 23a, (2R,3R,3aS,5R,7aR,9R,10R,10aS,12S,14aR)-2,9-bis(2,6-diamino-9H-purin-9-yl)-3,10-dihydroxy-5,12-dimercaptooctahydro-2H,7H-difuro[3,2-d:3′,2′-j][1,3,7,9]tetraoxa[2,8]diphosphacyclododecine 5,12-dioxide] | 
4 | 3.10 | CC(C)C(=O)Nc1nc2c(ncn2[C@@H]2O[C@@H]3CO[P@@](=O)(S)O[C@H]4[C@@H](F)[C@H](n5cnc6c(=O)[nH]c(NC(=O)C(C)C)nc65)O[C@@H]4CO[P@@](=O)(S)O[C@H]3[C@H]2F)c(=O)[nH]1 [Compound 32, N,N′-(((2R,3R,3aR,5R,7aR,9R,10R,10aR,12R,14aR)-3,10-difluoro-5,12-dimercapto-5,12-dioxidooctahydro-2H, 7H-difuro[3,2-d:3′,2′-j][1,3,7,9]tetraoxa[2,8]diphosphacyclododecine-2,9-diyl)bis(6-oxo-6,9-dihydro-1H-purine-9,2-diyl))bis(2-methylpropanamide)] | 
5 | 2.39 | Nc1ccn([C@@H]2O[C@@H]3CO[P@@](=O)(S)O[C@H]4[C@@H](F)[C@H](n5cnc6c(N)ncnc65)O[C@@H]4CO[P@@](=O)(S)O[C@H]3[C@H]2F)c(=O)n1 [Compound 37, 4-amino-1-((2R,3R,3aR,5R,7aR,9R,10R,10aR,12R,14aR)-9-(6-amino-9H-purin-9-yl) 3,10-difluoro-5,12-dimercapto 5,12-dioxidooctahydro-2H,7H-difuro[3,2-d:3′,2′-j][1,3,7,9]tetraoxa[2,8]diphosphacyclododecin-2-yl)pyrimidin-2(1H)-one] | 
6 | 2.50 | Nc1ccn([C@@H]2O[C@@H]3CO[P@](=O)(S)O[C@H]4[C@@H](F)[C@H](n5cnc6c(N)ncnc65)O[C@@H]4CO[P@@](=O)(S)O[C@H]3[C@H]2F)c(=O)n1 [Compound 37a, 4-amino-1-((2R,3R,3aR,5R,7aR,9R,10R, 10aR,12S,14aR)-9-(6-amino-9H-purin-9-yl)-3,10-difluoro-5,12-dimercapto-5,12-dioxidooctahydro-2H,7H-difuro[3,2-d: 3′,2′-j][1,3,7,9]tetraoxa[2,8]diphosphacyclododecin-2-yl)pyrimidin-2(1H)-one] | 
7 | 3.02 | CC(C)C(=O)Nc1nc2c(ncn2[C@@H]2O[C@@H]3CO[P@@](=O)(S)O[C@@H]4[C@H](O)[C@@H](CO[P@@](=O)(S)O[C@H]3[C@H]2O)O[C@H]4n2cnc3c(NC(=O)c4ccccc4)ncnc32)c(=O)[nH]1 [Compound 42, dithio-[RP, RP]-cyclic-[ibG(3′,5′)p-BzA(2′,5′)p]] | 
8 | 2.39 | Nc1nc2c(ncn2[C@@H]2O[C@@H]3CO[P@](=O)(S)O[C@@H]4[C@H](O)[C@@H](CO[P@](=O)(S)O[C@H]3[C@H]2O)O[C@H]4n2cnc3c(N)ncnc32)c(=O)[nH]1 [Compound 43] | 
9 | 3.18 | Nc1ncnc2c1ncn2[C@H]1O[C@H]2CO[P@](=O)(S)O[C@@H]3[C@H](O)[C@@H](n4cnc5c(N)ncnc54)O[C@H]3CO[P@](=O)(S)O[C@@H]2[C@@H]1O [Compound 48, (2S,3S,3aR,5S,7aS,9S,10S,10aR,12S,14aS)-2,9-bis(6-amino-9H-purin-9-yl)-3,10-dihydroxy-5,12-dimercaptooctahydro-2H,7H-difuro[3,2-d:3′,2′-j][1,3,7,9]tetraoxa[2,8]diphosphacyclododecine 5,12-dioxide] | 
10 | 3.51 | Nc1ncnc2c1ncn2[C@H]1O[C@H]2CO[P@@](=O)(S)O[C@@H]3[C@H](O)[C@@H](n4cnc5c(N)ncnc54)O[C@H]3CO[P@](=O)(S)O[C@@H]2[C@@H]1O [Compound 48a, Triethylammonium (2S,3S,3aR,5R,7aS,9S,10S,10aR,12S,14aS)-2,9-bis(6-amino-9H-purin-9-yl)-3,10-dihydroxyoctahydro-2H, 7H-difuro[3,2-d: 3′,2′-j][1,3,7,9]tetraoxa[2,8]diphosphacyclododecine-5,12-bis(thiolate) 5,12-dioxide] | 
11 | 3.47 | Nc1ncnc2c1ncn2[C@H]1O[C@H]2CO[P@@](=O)(S)O[C@@H]3[C@H](O)[C@@H](n4cnc5c(N)ncnc54)O[C@H]3CO[P@@](=O)(S)O[C@@H]2[C@@H]1O [Compound 48b, triethylammonium (2S,3S,3R,5R,7aS,9S,10S,10aR,12R,14aS)-2,9-bis(6-amino-9H-purin-9-yl)-3,10-dihydroxyoctahydro-2H,7H-difuro[3,2-d: 3′,2′-j][1,3,7,9]tetraoxa[2,8]diphosphacyclododecine-5,12-bis(thiolate) 5,12-dioxide] | 
12 | 2.30 | C#CCOc1nc(N)nc2c1ncn2[C@@H]1O[C@@H]2COP(=O)(O)O[C@H]3[C@@H](O)[C@H](n4cnc5c(=O)[nH]c(N)nc54)O[C@@H]3COP(=O)(O)O[C@H]2[C@H]1O [compound 25, 2-amino-9-((2R,3R,3aS,7aR,9R,10R,10aS,14aR)-9-(2-amino-6-(prop-2-yn-1-yloxy)-9H-purin-9-yl)-3,5,10,12-tetrahydroxy-5,12-dioxidooctahydro-2H,7H-difuro[3,2-d:3′,2′-j][1,3,7,9]tetraoxa[2,8]diphosphacyclododecin-2-yl)-1,9-dihydro-6H-purin-6-one] | 
